Laboratory results taken from PubChem BioAssay AID330 (DTP/NCI, 2004).
“And” between values parts separate entries of the source, which are not always exact repeats. Equal values may be shown once. Toxic doses and inconclusive results are not listed. Rule for the calls: active = survival T/C of 150% or more; inactive = T/C below 125% in these data.

Test system: P388 leukemia ip, CD2F1 mice, survival T/C
Test: NCI In Vivo Anticancer Drug Screen. Data for tumor model P388 Leukemia (intraperitoneal) in CD2F1 (CDF1) mice
Settings: endpoint: median survival time, higher = longer survival
Procedure, shortened: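 Mice carrying the transplanted tumor received test compound or vehicle. Survival was recorded in each group, and the value is the treated-group measurement divided by that of the vehicle-treated control group.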

[1] = dose: 50.0 mg/kg/injection, schedule: Q01DX005 (ip), vehicle: saline with Tween-80
[2] = dose: 100.0 mg/kg/injection, schedule: Q01DX005 (ip), vehicle: saline with Tween-80
[3] = dose: 12.5 mg/kg/injection, schedule: Q01DX009 (ip), vehicle: saline
[4] = dose: 25.0 mg/kg/injection, schedule: Q01DX009 (ip), vehicle: saline
[5] = dose: 50.0 mg/kg/injection, schedule: Q01DX009 (ip), vehicle: saline
[6] = dose: 200.0 mg/kg/injection, schedule: Q01DX009 (ip), vehicle: saline
[7] = dose: 60.0 mg/kg/injection, schedule: Q01DX005 (ip), vehicle: saline with Tween-80
[8] = dose: 120.0 mg/kg/injection, schedule: Q01DX005 (ip), vehicle: saline with Tween-80
[9] = dose: 240.0 mg/kg/injection, schedule: Q01DX005 (ip), vehicle: saline with Tween-80
[10] = dose: 50.0 mg/kg/injection, schedule: Q01DX009 (ip), vehicle: saline with Tween-80
[11] = dose: 100.0 mg/kg/injection, schedule: Q01DX009 (ip), vehicle: saline with Tween-80
[12] = dose: 200.0 mg/kg/injection, schedule: Q01DX009 (ip), vehicle: saline with Tween-80
[13] = dose: 6.25 mg/kg/injection, schedule: Q01DX009 (ip), vehicle: saline
[14] = dose: 60.0 mg/kg/injection, schedule: Q01DX005 (ip), vehicle: saline

Measured: T/C

CC(C)(C)c1cc(C(O)(C(F)(F)F)C(F)(F)F)c(S)c(C(O)(C(F)(F)F)C(F)(F)F)c1
inactive: dose: 3.12 mg/kg/injection, schedule: Q01DX005 (ip), vehicle: suspension in saline 103 % of control | dose: 6.25 mg/kg/injection, schedule: Q01DX005 (ip), vehicle: suspension in saline 103 % of control | dose: 12.5 mg/kg/injection, schedule: Q01DX005 (ip), vehicle: suspension in saline 103 % of control | dose: 25.0 mg/kg/injection, schedule: Q01DX005 (ip), vehicle: suspension in saline 110 % of control and 112 % of control

Cc1ccc(C)c(C[n+]2ccccc2C2(C)OCCO2)c1
inactive: [1] 101 % of control | [2] 103 % of control | dose: 200.0 mg/kg/injection, schedule: Q01DX005 (ip), vehicle: saline with Tween-80 100 % of control

CN(C)C(=S)S(C)(=O)=O
inactive: [3] 107 % of control | [4] 109 % of control | [5] 103 % of control and 107 % of control

[N-]=[N+]=NC(c1ccccc1)n1nnnc1-c1ccccc1 (stereo not drawn)
inactive: dose: 100.0 mg/kg/injection, schedule: Q01DX001 (ip), vehicle: Klucel (hydroxypropylcellulose) (HPC) 101 % of control and 88 % of control | dose: 200.0 mg/kg/injection, schedule: Q01DX001 (ip), vehicle: Klucel (hydroxypropylcellulose) (HPC) 102 % of control and 95 % of control | dose: 400.0 mg/kg/injection, schedule: Q01DX001 (ip), vehicle: Klucel (hydroxypropylcellulose) (HPC) 98 % of control and 120 % of control

CCSC(=O)N1CCN(C(=O)SCC)CC1
inactive: dose: 12.5 mg/kg/injection, schedule: Q04DX003 (ip), vehicle: saline 100 % of control | dose: 25.0 mg/kg/injection, schedule: Q04DX003 (ip), vehicle: saline 100 % of control | dose: 50.0 mg/kg/injection, schedule: Q04DX003 (ip), vehicle: saline 101 % of control | dose: 100.0 mg/kg/injection, schedule: Q04DX003 (ip), vehicle: saline 108 % of control

O=C(O)c1c[nH]c2cc(OCc3ccc(Br)cc3)ccc2c1=O
inactive: [5] 96 % of control | dose: 100.0 mg/kg/injection, schedule: Q01DX009 (ip), vehicle: saline 89 % of control | [6] 86 % of control

Cc1ccc(NC(=O)Oc2ccc([N+](=O)[O-])cc2)cc1S(=O)(=O)F
inactive: [7] 113 % of control | [8] 104 % of control | [9] 95 % of control

N=C(N)SCc1ccc(C(=O)NN2C(=O)c3ccccc3C2=O)cc1
inactive: [10] 92 % of control | [11] 92 % of control | [12] 97 % of control

COC(=O)C1(C(=O)Nc2ccccc2)N=N1
inactive: dose: 60.0 mg/kg/injection, schedule: Q01DX005 (ip), vehicle: Klucel (hydroxypropylcellulose) (HPC) 108 % of control | dose: 120.0 mg/kg/injection, schedule: Q01DX005 (ip), vehicle: Klucel (hydroxypropylcellulose) (HPC) 100 % of control | dose: 240.0 mg/kg/injection, schedule: Q01DX005 (ip), vehicle: Klucel (hydroxypropylcellulose) (HPC) 103 % of control

CC(O)C(=O)N(CCO)CCO (stereo not drawn)
inactive: dose: 50.0 mg/kg/injection, schedule: Q01DX005 (ip), vehicle: saline 108 % of control | dose: 100.0 mg/kg/injection, schedule: Q01DX005 (ip), vehicle: saline 101 % of control | dose: 200.0 mg/kg/injection, schedule: Q01DX005 (ip), vehicle: saline 104 % of control

Cc1ccccc1-n1cccc1C(=O)O
inactive: [7] 95 % of control | [8] 93 % of control | [9] 99 % of control

CC(C)=CCC(C)/C(=N\[N+](C)(C)C)c1ccccc1 (stereo not drawn)
inactive: [13] 94 % of control | [3] 99 % of control | [4] 101 % of control and 116 % of control

Cn1c(-c2ccccc2)c(-c2ccccc2)c(=O)c(-c2ccccc2)c1-c1ccccc1
inactive: dose: 50.0 mg/kg/injection, schedule: Q01DX009 (ip), vehicle: Klucel (hydroxypropylcellulose) (HPC) 92 % of control | dose: 100.0 mg/kg/injection, schedule: Q01DX009 (ip), vehicle: Klucel (hydroxypropylcellulose) (HPC) 92 % of control | dose: 200.0 mg/kg/injection, schedule: Q01DX009 (ip), vehicle: Klucel (hydroxypropylcellulose) (HPC) 91 % of control

Cc1coc2c3c(ccc12)OC(C)(C)C=C3
inactive: dose: 100.0 mg/kg/injection, schedule: Q01DX001 (ip), vehicle: saline with Tween-80 102 % of control | dose: 200.0 mg/kg/injection, schedule: Q01DX001 (ip), vehicle: saline with Tween-80 104 % of control

OCCn1nc2c(c1-c1ccccn1)CCCc1ccccc1-2
inactive: dose: 100.0 mg/kg/injection, schedule: Q04DX002 (ip), vehicle: gum acacia 104 % of control | dose: 200.0 mg/kg/injection, schedule: Q04DX002 (ip), vehicle: gum acacia 97 % of control | dose: 400.0 mg/kg/injection, schedule: Q04DX002 (ip), vehicle: gum acacia 92 % of control

CCCCCCC(C)OC(=O)OCCOCCOC(=O)OC(C)C(=O)OCCCC (stereo not drawn)
inactive: [14] 100 % of control | dose: 120.0 mg/kg/injection, schedule: Q01DX005 (ip), vehicle: saline 94 % of control | dose: 240.0 mg/kg/injection, schedule: Q01DX005 (ip), vehicle: saline 100 % of control

CC(C)c1nccn1Cc1ccccc1
inactive: dose: 15.0 mg/kg/injection, schedule: Q01DX005 (ip), vehicle: saline 101 % of control | dose: 30.0 mg/kg/injection, schedule: Q01DX005 (ip), vehicle: saline 99 % of control | [14] 101 % of control and 90 % of control

CC(=O)SCC1C(=O)CCCC1=O
inactive: dose: 12.5 mg/kg/injection, schedule: Q04DX003 (ip), vehicle: saline with Tween-80 104 % of control | dose: 25.0 mg/kg/injection, schedule: Q04DX003 (ip), vehicle: saline with Tween-80 101 % of control and 109 % of control | dose: 50.0 mg/kg/injection, schedule: Q04DX003 (ip), vehicle: saline with Tween-80 100 % of control and 124 % of control

Oc1ccc(C(c2ccc(O)cc2)C(c2ccc(O)cc2)c2ccc(O)cc2)cc1
inactive: [10] 107 % of control | [11] 100 % of control | [12] 113 % of control

O=S(=O)(O)c1cnc2nccn2c1
inactive: dose: 50.0 mg/kg/injection, schedule: Q04DX003 (ip), vehicle: suspension in saline 99 % of control | dose: 100.0 mg/kg/injection, schedule: Q04DX003 (ip), vehicle: suspension in saline 110 % of control | dose: 200.0 mg/kg/injection, schedule: Q04DX003 (ip), vehicle: suspension in saline 105 % of control

CN(C#N)CCc1ccccc1
inactive: [10] 100 % of control | [11] 96 % of control

CCn1c(=NC(=O)c2ccccc2O)sc2ccccc21
inactive: dose: 100.0 mg/kg/injection, schedule: Q01DX001 (ip), vehicle: saline 98 % of control and 95 % of control | dose: 200.0 mg/kg/injection, schedule: Q01DX001 (ip), vehicle: saline 103 % of control and 95 % of control | dose: 400.0 mg/kg/injection, schedule: Q01DX001 (ip), vehicle: saline 100 % of control and 103 % of control

CNC(=O)OCc1nnn(-c2ccccc2)c1COC(=O)NC
inactive: dose: 12.5 mg/kg/injection, schedule: Q01DX005 (ip), vehicle: distilled water + Tween-80 98 % of control | dose: 25.0 mg/kg/injection, schedule: Q01DX005 (ip), vehicle: distilled water + Tween-80 98 % of control | dose: 50.0 mg/kg/injection, schedule: Q01DX005 (ip), vehicle: distilled water + Tween-80 96 % of control | dose: 100.0 mg/kg/injection, schedule: Q01DX005 (ip), vehicle: distilled water + Tween-80 91 % of control | dose: 200.0 mg/kg/injection, schedule: Q01DX005 (ip), vehicle: distilled water + Tween-80 88 % of control

O=C1c2ccccc2C(=O)N1c1ccc(Nc2nc(Nc3ccc(N4C(=O)c5ccccc5C4=O)cc3)nc(N(C3CCCCC3)C3CCCCC3)n2)cc1
inactive: [1] 94 % of control | [2] 87 % of control

C[N+]1(CCC(=O)c2ccccc2)CCOCC1
inactive: [13] 100 % of control | [3] 103 % of control | [4] 100 % of control | [5] 100 % of control and 97 % of control | [6] 96 % of control

CCCCCCCCN1CSC(=S)N(c2ccc3[nH]c(=S)sc3c2)C1
inactive: dose: 6.25 mg/kg/injection, schedule: Q01DX009 (ip), vehicle: Klucel (hydroxypropylcellulose) (HPC) 94 % of control | dose: 12.5 mg/kg/injection, schedule: Q01DX009 (ip), vehicle: Klucel (hydroxypropylcellulose) (HPC) 106 % of control | dose: 25.0 mg/kg/injection, schedule: Q01DX009 (ip), vehicle: Klucel (hydroxypropylcellulose) (HPC) 94 % of control

Cc1ccc(NC(=O)Oc2ccc(F)cc2Cl)c([N+](=O)[O-])c1
inactive: [10] 112 % of control | [11] 118 % of control
